Here are results for six compounds from article PMC7939384, “In crystallo screening for proline analog inhibitors of the proline cycle enzyme PYCR1” (The Journal of Biological Chemistry, 2021).

Structures are written as SMILES. Values joined by “and” are separate entries in the source; they are usually repeats but may differ in a detail not shown here. Equal entries are not always repeated.

The target of the first test is T1, human PYCR1 (Homo sapiens, UniProt P32322).
T1 sequence (P32322 1-300): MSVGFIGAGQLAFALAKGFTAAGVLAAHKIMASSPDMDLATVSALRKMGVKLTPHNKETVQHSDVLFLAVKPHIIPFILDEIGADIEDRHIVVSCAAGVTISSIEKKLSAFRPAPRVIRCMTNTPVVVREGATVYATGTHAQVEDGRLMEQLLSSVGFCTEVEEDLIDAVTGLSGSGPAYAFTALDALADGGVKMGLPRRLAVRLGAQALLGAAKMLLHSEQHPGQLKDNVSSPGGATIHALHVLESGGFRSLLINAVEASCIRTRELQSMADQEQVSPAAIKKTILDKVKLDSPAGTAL
Put plainly: biochemical.
Settings: not given
As for the experimental part: (§1) Over two dozen proline analogs (Fig. 2) were screened using electron density from X-ray crystallography as the readout for binding to human PYCR1. […] Because the compounds bind in the P5C/proline site, the mechanism of inhibition was assumed to be competitive with P5C. Therefore, steady-state kinetic measurements were performed with L-P5C as the variable substrate (0-1000 μM) and NADH fixed (175 μM) (Fig. 3). For each compound, the data were fit globally to a competitive inhibition model (Equation 1) to obtain an inhibition constant, Ki.
B, THFA. C, CPC. D, T4C. E, T2C. F, NFLP. The data were measured in 50 mM Tris (pH 7.5) with 1 mM EDTA disodium salt while holding NADH fixed at 175 μM and varying D,L-P5C (0–2000 μM). The concentration of the substrate L-P5C was considered to be half the total D,L-P5C concentration added to the assays. Curves represent global fits of the data to a competitive inhibition model showing initial velocity in units of µM [NAD^+] s^−1 as a function of L-P5C concentration (µM).
A C-terminal truncation variant of human PYCR1, which includes residues 1–300 of the full-length 319-residue enzyme, was used for kinetics and X-ray crystallography ([18]). PYCR1 was overexpressed in Escherichia coli BL21 (DE3) competent cells and purified using methods similar to those previously reported ([18]). Harvested cells were lysed via sonication in a mixture containing DNase I, lysozyme, and 0.2 mM phenylmethylsulfonyl fluoride protease inhibitor, and then the insoluble material was removed via centrifugation at 16,000 rpm for 1 h at 4°C. The resulting lysate was purified by gravity-flow chromatography on a column containing Ni^2+–nitrilotriacetic acid resin (Qiagen) pre-equilibrated with binding buffer consisting of 50 mM HEPES, 300 mM NaCl, 10 mM imidazole, and 5% (w/v) glycerol at pH 7.8 (buffer A). The column was washed with buffer A supplemented with 30 mM imidazole, and then the bound protein was eluted with buffer A supplemented with 300 mM imidazole. Elution fractions containing PYCR1 were identified by SDS-PAGE and prepared for further purification by size-exclusion chromatography by dialyzing into 300 mM NaCl, 2% (w/v) glycerol, and 50 mM HEPES at pH 7.5. Size-exclusion chromatography was performed on a HiLoad 16/600 Superdex 200 column equilibrated with 50 mM HEPES, pH 7.8, 300 mM NaCl, and 5% (w/v) glycerol. Purified PYCR1 was concentrated to 8 mg/ml and stored at 4°C for subsequent crystallization trials.
Kinetic measurements were performed in a BioTek Epoch 2 microplate spectrophotometer using Corning 96-well UV-transparent microplates. Activity assays were performed by monitoring the consumption of NADH at 340 nm (ε340 = 6220 M^−1 cm^−1) using P5C as the substrate. D,L-P5C was synthesized as described previously ([45]), quantified using o-aminobenzaldehyde (o-AB), and stored in 1 M HCl at 4°C. Neutralization of D,L-P5C to pH 7.5 was performed immediately prior to assays using 1 M Tris (pH 7.5) and 6 M NaOH. The concentration of the substrate L-P5C was assumed to be half the total D,L-P5C concentration added to the assays.
The following microplate protocol was employed. Substrate mixtures containing P5C, NADH, EDTA, and Tris buffer were prepared in a deep well block for each P5C concentration. Mixtures containing enzyme and various concentrations of the inhibitor were prepared in microcentrifuge tubes and incubated on ice in buffer containing 50 mM HEPES pH 7.8, 300 mM NaCl, and 5% (w/v) glycerol. The final concentration of PYCR1 in the assay was 6.25 nM. Twenty μl of the enzyme-analog mixture was added to microplate wells using a single-channel pipette, and then the reaction was initiated by addition of 180 μl of the substrate mixtures using a multi-channel pipettor. The reaction traces were followed for 35 min.
Regarding `O=C(O)[C@@H]1CCCO1` [THFA, (S)-(−)-tetrahydro-2-furoic acid], the “inhibition of PYCR1 (in words)” value is “only negligibly inhibits PYCR1”.
On the same count and under the same terms, with `CC(=O)N1CCC[C@H]1C(=O)O` [N-acetyl L-proline] the entry was “did not inhibit PYCR1”.

The same test, now with this note: Ki (estimated), competitive with P5C; NADH fixed 175 μM; rounded values.
What is called Ki is a measure of affinity in units of concentration, obtained from inhibition or displacement. For the compound `O=C(O)[C@@H]1CCCO1` [THFA, (S)-(−)-tetrahydro-2-furoic acid], the inhibition constant (Ki) was > 1000 µM and 2000 µM.
On the same count and under the same terms, with `O=C(O)C1NCCS1` [L-T2C, L-thiazolidine-2-carboxylate] the figure was roughly 400 µM; with `O=C(O)C1CCCC1` [CPC, cyclopentanecarboxylate], > 1000 µM and 1000 µM; with `O=C(O)[C@@H]1CSCN1` [L-T4C, L-thiazolidine-4-carboxylate], roughly 600 µM.

Still in this test, the particulars now being: Ki, competitive with P5C; NADH fixed 175 μM; 50 mM Tris pH 7.5; global fit.
The compound `O=C(O)[C@@H]1CCCO1` [THFA, (S)-(−)-tetrahydro-2-furoic acid] displayed a Ki of 2250 ± 121 µM.
As to `O=C(O)C1NCCS1` [L-T2C, L-thiazolidine-2-carboxylate], the affinity corresponds to a Ki of 438 ± 29 µM.
Take `O=C(O)C1CCCC1` [CPC, cyclopentanecarboxylate]: the Ki was 1190 ± 61 µM.
Same read-out and setting: the same measure for `O=C(O)[C@@H]1CSCN1` [L-T4C, L-thiazolidine-4-carboxylate]: 598 ± 39 µM.

The same test, now with this note: kcat for L-P5C at fixed NADH 175 μM; global fit of the data set with this analog.
As a reminder, the kcat is the maximal rate divided by the concentration of active sites. On to `O=C(O)[C@@H]1CCCO1` [THFA, (S)-(−)-tetrahydro-2-furoic acid], for which the turnover number (kcat) was 69 ± 1 s⁻¹.
On the same count and under the same terms, with `O=C(O)C1NCCS1` [L-T2C, L-thiazolidine-2-carboxylate] the figure was 37 ± 1 s⁻¹; with `O=C(O)C1CCCC1` [CPC, cyclopentanecarboxylate], 35 ± 1 s⁻¹.
On the same count and under the same terms, with `O=C(O)[C@@H]1CSCN1` [L-T4C, L-thiazolidine-4-carboxylate] the figure was 54 ± 2 s⁻¹.

In another test the target is T1, human PYCR1. Put plainly: In crystallo screening: electron density as readout for binding (crystal soaking). On the set-up: includes residues 1–300 of the full-length 319-residue enzyme; inferred from the Ni-NTA purification; made in house; host or cells: Escherichia coli BL21 (DE3). To be noted: apo crystals soaked with 25–500 mM of the proline analog. As for the experimental part: as §1
06594), D,L-thiazolidine-2-carboxylate (Sigma-Aldrich no. 467995), L-thiazolidine-4-carboxylate (Sigma-Aldrich no. T27502), 1,3-thiazolidine-2,4-dicarboxylate (Sigma-Aldrich no. CDS000186), dimethyl 1,3-thiazolidine-2,4-dicarboxylate (Sigma-Aldrich no. […] 287067), L-4-hydroxyproline methyl ester (hydrochloride) (Sigma-Aldrich no. 30681), cis-4-hydroxy-D-proline methyl ester (hydrochloride) (Sigma-Aldrich no. […] 441562), L-(+)-mandelic acid (Sigma-Aldrich no. 63460), sodium-L-lactate (Sigma-Aldrich no. 71718), D-cycloserine (Sigma-Aldrich no. C6880). The proline analogs were added to apo crystals during cryoprotection by soaking the crystals in the reservoir solution supplemented with cryoprotectant (PEG 200 for the PEG 3350 form; glycerol for the NaCl form) and then in the same cryobuffer supplemented with 25–500 mM of the proline analog. Following equilibration, the crystals were harvested and rapidly plunged into liquid nitrogen.
The complex of PYCR1 with THFA was obtained by soaking a C2 crystal (NaCl form) for 15 min in a cryo-buffer consisting of the reservoir solution (3 M NaCl and 0.1 M HEPES at pH 7.5–8.0) supplemented with 30% glycerol and 50 mM THFA, followed by flash-cooling in liquid nitrogen. Crystals of the NFLP complex were prepared by soaking P2_12_12 crystals in the reservoir solution (250 mM Li2SO4, 19% (w/v) PEG 3350, 0.1 M HEPES, pH 7.5) supplemented with 20% (v/v) PEG 200 and 100 mM NFLP. The complexes with L-T2C and L-T4C were prepared similarly, except the Li2SO4 concentration was reduced to 25 mM and 50 mM of either L-T4C or D,L-T2C was included.
For `O=C(O)[C@@H]1CCCO1` [THFA, (S)-(−)-tetrahydro-2-furoic acid], the “electron density evidence for binding (in words)” value is listed as “Electron density evidence for binding was observed”.
`O=C(O)C1NCCS1` [L-T2C, L-thiazolidine-2-carboxylate]: the “electron density evidence for binding (in words)” value is on record as “Electron density evidence for binding was observed”.
The same measure, in the same setting: with `O=C(O)[C@@H]1CSCN1` [L-T4C, L-thiazolidine-4-carboxylate] the entry was “Electron density evidence for binding was observed”.

The next test concerns PYCR1.
Assay: not given
The conditions noted are these: reported IC50 against PYCR1; cited from earlier work. The arrangement: method as in PMID 31362921.
By IC50 is commonly meant the concentration needed to halve the response being measured. With `C#CCN(C)Cc1ccccc1` [pargyline], the concentration for half-maximal inhibition (IC50) is 200 µM.
